Earlier results on 3 compounds are cited in patent US5122371A (priority 1991, dated 1992).

For one data set, the system named is Na+ K+-ATPase enzyme. Particulars: known property of cardiac glycosides.
The conditions of data set [1]: in vivo.

Take digitalis: the “Effect on Na+ K+-ATPase enzyme activity” value in the data set on Na+ K+-ATPase enzyme is “inhibit”. As to `C[C@H]1O[C@@H](O[C@H]2[C@@H](O)C[C@H](O[C@H]3[C@@H](O)C[C@H](O[C@H]4CC[C@@]5(C)[C@H](CC[C@@H]6[C@@H]5C[C@@H](O)[C@]5(C)[C@@H](C7=CC(=O)OC7)CC[C@]65O)C4)O[C@@H]3C)O[C@@H]2C)C[C@H](O)[C@@H]1O` [digoxin], the “Effect on Na+ K+-ATPase enzyme activity” value in the data set on Na+ K+-ATPase enzyme is “inhibit”.

For orientation: half-life means the time needed for the level to fall by half in the phase considered. For `C[C@@H]1O[C@@H](O[C@H]2C[C@@H](O)[C@]3(CO)[C@H]4[C@H](O)C[C@]5(C)[C@@H](C6=CC(=O)OC6)CC[C@]5(O)[C@@H]4CC[C@]3(O)C2)[C@H](O)[C@H](O)[C@H]1O` [ouabain], the “Effect on Na+ K+-ATPase enzyme activity” value in the data set on Na+ K+-ATPase enzyme is “inhibit”. Besides, the half-life in data set [1] was 21 h.
